Read-outs that look alike come from different tables or passages of the source. Marks after values point to notes of the source that are not given here.
Key:
[1] = Pharmacokinetics after single i.v. administration to rats (plasma, UHPLC-MS/MS); type: in vivo, Wistar rats; settings: for Cmax / Tmax / AUC(0-inf) / clearance / half-life / AUC(0-t) / Vd: male, Wistar, rat, plasma, iv; for Cmax / Tmax / AUC(0-inf) / clearance / half-life / AUC(0-t): 2 mg/kg; for AUC(0-inf): read-out: AUC (zero to infinity); for AUC(0-t): read-out: AUC0-tlast; for Vd: read-out: Vz (apparent volume of distribution); for mean plasma concentration at 6 h relative to Cmax: i.v. 2 mg·kg^−1, 6 h, DpC Group 1
Method: Male Wistar rats (230-310 g; n = 22) obtained from Velaz (Czech Republic) were kept in an air-conditioned room under a 12 h light-dark cycle, constant temperature and humidity and had free access to water and a standard laboratory pellet diet for rodents. All animal handling and procedures were approved and supervised by the Animal Welfare Body of the Faculty of Medicine in Hradec Kralove, Charles University in Prague. The investigation conformed to the Guide for the Care and Use of Laboratory Animals.
The rats were anaesthetized with pentobarbital (30 mg^.kg^−1; i.p.) and then the vena jugularis and arteria carotis were prepared for drug administration and blood sample collection, respectively. Both Dp44mT and DpC were dissolved in a mixture of saline, PEG 300 and ethanol (5:4:1, v/v/v) and administered to rats at a dose of 2 mg^.kg^−1, as a slow i.v. bolus. Blood was then collected into EDTA-containing tubes, immediately centrifuged and the plasma kept at −80°C until being analyzed. The blood withdrawn from animals was compensated with an appropriate volume of saline. The animals were sacrificed by pentobarbital overdose.
Initially, for both compounds, rats (n = 2, in each group) were used for the in-vivo investigation of the thiosemicarbazone metabolites and also the preparation of the quantitative analytical method. For the full PK study, 6 rats were used for each compound (group 1) and the blood was sampled at 4, 10, 30, 60, 120, 240 and 360 min post-administration.
Due to the markedly slower elimination of DpC, an additional in-vivo study was performed to appropriately describe the elimination phase of this drug. The conscious rats (n = 8, group 2) were administered DpC (2 mg^.kg^−1) via slow i.v. bolus to the vena saphena. Blood was sampled from the retro-orbital plexus under light ether anesthesia during the following time intervals: 120, 360, 600, 1440 and 1800 min. Plasma samples were treated and analyzed using the analytical methods described below in the Section: UHPLC-MS/MS methods for quantitative assay of the drugs and their metabolites.
Standard non-compartmental analysis was performed implementing Kinetica software (version 4.0, Thermo Fisher Scientific Inc., MA, U.S.A.). […] Maximum concentration (Cmax) and the time to maximum concentration (Tmax) were determined directly from the geometric mean vs. time profiles and from individual profiles. The area under the mean plasma concentration–time curve from zero up to the last sampling interval (AUC0-tlast) was calculated by a combination of the linear and log-linear trapezoidal methods. The area under the mean plasma concentration–time curve from zero up to infinity (AUC) was determined as the sum of the AUC0–tlast and of the extrapolated part (i.e., the ratio of the concentration predicted at the time interval of tlast and the terminal rate constant, λz). The λz was estimated by linear regression of the log transformed concentrations in the terminal part of the curve.
Population pharmacokinetic modeling was performed using non-linear, mixed effect modeling as implemented in Monolix, version 4 (http://wfn.software.monolix.org). Pharmacokinetic parameters were estimated by computing the maximum likelihood estimator of the parameters without any approximation of the model (no linearization). This was performed using the Stochastic Approximation Expectation Maximization (SAEM) algorithm combined with a Markov chain Monte Carlo procedure. The between-animal variability in model parameters were ascribed to an exponential model and a proportional model was used to describe the residual variability. The goodness-of-fit was assessed by using several diagnostic plots (observed and predicted concentrations vs. time; observed concentrations vs. population predictions; weighted residuals vs. time; and weighted residuals vs. predictions). Individual parameter values were obtained as empirical Bayes estimates. […]

[2] = Long-term stability in plasma samples at -80°C; type: in vitro ADME, rat; settings: for Long-term stability: plasma, -80°C, 7 days; for decomposition on storage (in words): up to 7 days stored at −80°C
Method: The UHPLC-MS/MS methods for quantitative assays were validated with respect to selectivity, linearity, precision, accuracy, stability, recovery, matrix effects and dilution integrity (see […]
Linearity was examined over the concentration ranges described in Supplementary Table 1 using a weighted (1/x 2) linear regression in GraphPad Prism 6 (v. 6.04, GraphPad Software […]
Stability was assessed at low, medium and high concentration levels. Long -term stability was assessed for plasma samples at -80°C over a period of 7 days (three aliquots per level; Supplementary Table 3). […]

[3] = system: MCF-7 cells; assay: In-vitro metabolism of the drugs in MCF-7 cells (HPLC-MS); type: in vitro ADME, human; settings: MCF-7, 10 μmol·L^−1, 12 h, 37°C
Method: Breast cancer cells (MCF-7) and H9c2 heart-derived myoblasts were seeded in 100-mm Petri dishes (1,000,000 cells/dish) for 24 h/37°C. Freshly prepared stock solutions of Dp44mT and DpC in DMSO (Sigma-Aldrich, Germany) were diluted in culture medium to the required working concentration.
The cells were incubated for 12 h (37°C) with either Dp44mT or DpC at a concentration of 10 μmol·L^−1. After this incubation, the cells were harvested, washed twice with ice-cold PBS buffer, centrifuged (790 x g) and precipitated with acetonitrile (200 μL/10^6 cells) prior to the analysis. The overlaying medium was also analyzed to search for possible metabolites. […] All samples were analyzed using HPLC-MS as described below in the Section: HPLC-MS method to identify metabolites of the drugs.
To search for the metabolites, plasma was precipitated with methanol or acetonitrile (plasma/solvent ratio – 1:3, v/v), treated using solid phase extraction (SPE; Discovery DSC-PH, Supelco, PA, U.S.A.), or liquid-liquid extraction with various solvents (ethyl acetate, toluene, dichloromethane). […] These samples were then analyzed using HPLC-MS with ion trap mass analyzer implementing the settings described previously with minor modifications (for details of the analyses see Supplementary Material, part 2.1). […]

[4] = rats, i.v. 2 mg·kg^−1, individual values, mean ± S.D., DpC Group 1 only, read-out: Cmax (observed, individual)
[5] = rats, i.v. 2 mg·kg^−1, individual values, mean ± S.D., DpC Group 1 only, read-out: Tmax (observed, individual) (converted)
[6] = rats, i.v. 2 mg·kg^−1, non-compartmental analysis of geometric mean plasma curves, Dp4mT = metabolite after Dp44mT dosing, read-out: Cmax
[7] = rats, i.v. 2 mg·kg^−1, non-compartmental analysis, Dp4mT = metabolite after Dp44mT dosing, read-out: Tmax (converted)
[8] = rats, i.v. 2 mg·kg^−1, non-compartmental analysis
[9] = rats, i.v. 2 mg·kg^−1, non-compartmental analysis, read-out: CL (total plasma clearance) (converted)
[10] = rats, i.v. 2 mg·kg^−1, non-compartmental analysis, read-out: t1/2 (elimination half-life) (converted)
[11] = rats, i.v. 2 mg·kg^−1, two-compartment population model, Bayesian estimates, mean ± S.D.
[12] = rats, i.v. 2 mg·kg^−1, two-compartment population model, Bayesian estimates, mean ± S.D., read-out: CL (total clearance) (converted)
[13] = rats, i.v. 2 mg·kg^−1, two-compartment population model, Bayesian estimates, mean ± S.D., read-out: t1/2alpha (initial distribution half-life)
[14] = rats, i.v. 2 mg·kg^−1, two-compartment population model, Bayesian estimates, mean ± S.D., read-out: t1/2beta (elimination half-life) (converted)
[15] = high concentration level (2.105-3.115 µmol·L-1)
[16] = low concentration level (0.035-0.156 µmol·L-1)
[17] = medium concentration level (0.702-1.558 µmol·L-1)
[18] = rats, i.v., population analysis

Compound | Cmax [1, 4] | Tmax [1, 5] | Cmax [1, 6] | Tmax [1, 7] | AUC(0-inf) [1, 8] | clearance [1, 9] | half-life [1, 10] | AUC(0-inf) [1, 11] | clearance [1, 12] | half-life [1, 13] | half-life [1, 14] | AUC(0-t) [1] | Vd [1, 8] | mean plasma concentration at 6 h relative to Cmax ([1]; rats) | lamdaz (terminal rate constant of elimination) [1, 8] | mean extrapolated AUC [1, 8] | Q (intercompartmental clearance) [1, 11] | Vc (volume of central compartment) [1, 11] | Vp (volume of peripheral compartment) [1, 11] | Long-term stability [2, 15] | also measured
CN(C(=S)NN=C(c1ccccn1)c1ccccn1)C1CCCCC1 [DpC, di(2-pyridyl)ketone 4-cyclohexyl-4-methyl-3-thiosemicarbazone] | 5.57 ± 0.89 µM | 4 min | 5.51 µM | 4 min | 39.8 µM·h | 2.37 mL/min/kg | 810 min | 37.2 ± 16 µM·h | 3.1 mL/min/kg | 40 ± 5 min | 642 ± 240 min | 32.2 µM·h | 2.77 L/kg | 21% | 0.0515 h⁻¹ | 19% | 0.50 ± 0.11^b L·h^−1·kg^−1 | 1.05 ± 0.08 L/kg | 1.19 ± 0.68^a L·kg^−1 | 112.39% | total exposure (AUC/dose), fold exceeding that of Dp44mT ([1]; rats, i.v.): > 20 fold; dose-corrected individual Cmax, higher than Dp44mT by ([1]; rats, i.v., p<0.01): 80%; Long-term stability [2, 16]: 85.12%; Long-term stability [2, 17]: 87.76%; decomposition on storage (in words) [2]: No significant decomposition; metabolism in cancer cells [3]: do not undergo significant metabolism
CN(C)C(=S)NN=C(c1ccccn1)c1ccccn1 [Dp44mT, di(2-pyridyl)ketone 4,4-dimethyl-3-thiosemicarbazone] | 3.78 ± 1.33 µM | 5 min | 2.55 µM | 4 min | 1.46 µM·h | 79.7 mL/min/kg | 132 min | 1.66 ± 0.25 µM·h | 71.8 mL/min/kg | 4.3 ± 0.54 min | 102 ± 18 min | 1.34 µM·h | 15 L/kg | less than 2% | 0.318 h⁻¹ | 8% | 5.11 ± 0.66 L/h/kg | 1.02 ± 0.12 L/kg | 5.44 ± 1.70 L/kg | 94.93% | total clearance ([1]; rats, i.v. 2 mg·kg^−1, range of both analyses): 4.3-4.8 L^.h^−1.kg^−1; clearance, fold higher than DpC [1, 18]: 23 fold; dose-corrected total AUC, fold lower than DpC [1, 18]: 28 fold; terminal half-life of elimination (t1/2β), fold shorter than DpC [1, 18]: 6.3 fold; Long-term stability [2, 16]: 112.56%; Long-term stability [2, 17]: 108.06%; decomposition on storage (in words) [2]: No significant decomposition; metabolism in cancer cells [3]: do not undergo significant metabolism
